pIC50: −log10 of the molar value.
Molecular target: 3-beta-hydroxysteroid-Delta(8),Delta(7)-isomerase (Homo sapiens, UniProt Q15125)
Assay: Inhibition of EBP derived from HEK293T cells using zymosterol-d5 as substrate preincubated for 30 mins followed by substrate addition measured after 4 hrs by LC-APCI MRM MS analysis
Format: cell-based

Sequence of 3-beta-hydroxysteroid-Delta(8),Delta(7)-isomerase (Q15125 whole entry): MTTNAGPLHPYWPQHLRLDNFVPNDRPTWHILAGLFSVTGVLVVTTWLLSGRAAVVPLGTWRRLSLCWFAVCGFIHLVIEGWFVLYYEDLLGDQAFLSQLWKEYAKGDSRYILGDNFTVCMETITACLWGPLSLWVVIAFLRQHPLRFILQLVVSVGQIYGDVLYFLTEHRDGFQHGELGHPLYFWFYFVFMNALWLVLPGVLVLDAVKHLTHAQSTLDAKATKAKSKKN

| Structure (SMILES) | pIC50 |
| --- | --- |
| O=S(=O)(c1ccc2c(c1)OCCO2)N1CCC2(CCC(N3CC4(COC4)C3)C2)CC1 (stereo unspecified) | > 7.00 |
| COc1nccc(S(=O)(=O)N2CCC3(CCC(N4CCOCC4)C3)CC2)c1F (stereo unspecified) | > 7.00 |
| O=S(=O)(c1coc(C(F)(F)F)c1)N1CCC2(CCC(N3CC4(COC4)C3)C2)CC1 (stereo unspecified) | > 7.00 |
| O=S(=O)(c1ccc(F)cc1)N1CCC2(CCC(N3CC4(COC4)C3)C2)CC1 (stereo unspecified) | > 7.00 |
| Cc1nc(C(F)(F)F)ncc1S(=O)(=O)N1CCC2(CC1)CC(N(C)C1CC3(COC3)C1)CO2 (stereo unspecified) | > 7.00 |
| Cn1nc(C2CC2)cc1S(=O)(=O)N1CCC2(CC1)CC(NC1CCOCC1)C2 | > 7.00 |

Source: ChEMBL document CHEMBL5370677, “Emopamil-Binding Protein Inhibitors for Treating Multiple Sclerosis” (ACS Med Chem Lett, 2023)
